# Laboratory results published in the NIST ThermoML archive (doi:10.1016/j.jct.2014.08.010).
# ± gives the expanded uncertainty stated by the source.
# Experiments:
# [1] = DTA
# [2] = Molar enthalpy of transition or fusion; conditions: DSC
Triple point temperature ([1]; Crystal) [K],Triple point temperature ([1]; Nematic liquid crystal) [K],Molar enthalpy of transition or fusion ([2]; Crystal) [kcal/mol],Molar enthalpy of transition or fusion ([2]; Nematic liquid crystal) [kcal/mol],SMILES
305.15 ± 0.5,316.15 ± 0.5,5.82 ± 0.172,0.198 ± 0.0382,CCCCCCCc1ccc(-c2ccc(C#N)cc2)cc1 [4'-heptyl-4-biphenylcarbonitrile]
297.55 ± 0.5,308.65 ± 0.5,3.26 ± 0.108,0.117 ± 0.0359,CCCCCc1ccc(-c2ccc(C#N)cc2)cc1 [4'-n-pentyl-4-biphenylcarbonitrile]
